These results are taken from ChEMBL document CHEMBL3045372, “Biososteric Replacement in the Design and Synthesis of Ligands for Nicotinic Acetylcholine Receptors” (Med Chem Res, 2005).

T1 sequence (P17787 whole entry): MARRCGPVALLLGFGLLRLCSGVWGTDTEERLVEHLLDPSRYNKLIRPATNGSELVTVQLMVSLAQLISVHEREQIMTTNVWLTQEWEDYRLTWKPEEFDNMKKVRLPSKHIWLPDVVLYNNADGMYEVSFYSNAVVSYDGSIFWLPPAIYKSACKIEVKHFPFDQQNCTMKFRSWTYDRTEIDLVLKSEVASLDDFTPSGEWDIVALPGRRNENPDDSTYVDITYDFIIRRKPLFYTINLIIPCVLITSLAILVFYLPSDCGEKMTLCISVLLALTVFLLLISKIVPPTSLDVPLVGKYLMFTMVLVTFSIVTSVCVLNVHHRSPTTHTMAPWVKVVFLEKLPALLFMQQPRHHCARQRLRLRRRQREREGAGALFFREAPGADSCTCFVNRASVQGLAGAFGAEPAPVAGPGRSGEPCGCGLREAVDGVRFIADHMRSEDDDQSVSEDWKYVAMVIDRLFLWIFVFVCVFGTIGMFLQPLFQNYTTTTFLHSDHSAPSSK
T1 sequence (P43681 whole entry): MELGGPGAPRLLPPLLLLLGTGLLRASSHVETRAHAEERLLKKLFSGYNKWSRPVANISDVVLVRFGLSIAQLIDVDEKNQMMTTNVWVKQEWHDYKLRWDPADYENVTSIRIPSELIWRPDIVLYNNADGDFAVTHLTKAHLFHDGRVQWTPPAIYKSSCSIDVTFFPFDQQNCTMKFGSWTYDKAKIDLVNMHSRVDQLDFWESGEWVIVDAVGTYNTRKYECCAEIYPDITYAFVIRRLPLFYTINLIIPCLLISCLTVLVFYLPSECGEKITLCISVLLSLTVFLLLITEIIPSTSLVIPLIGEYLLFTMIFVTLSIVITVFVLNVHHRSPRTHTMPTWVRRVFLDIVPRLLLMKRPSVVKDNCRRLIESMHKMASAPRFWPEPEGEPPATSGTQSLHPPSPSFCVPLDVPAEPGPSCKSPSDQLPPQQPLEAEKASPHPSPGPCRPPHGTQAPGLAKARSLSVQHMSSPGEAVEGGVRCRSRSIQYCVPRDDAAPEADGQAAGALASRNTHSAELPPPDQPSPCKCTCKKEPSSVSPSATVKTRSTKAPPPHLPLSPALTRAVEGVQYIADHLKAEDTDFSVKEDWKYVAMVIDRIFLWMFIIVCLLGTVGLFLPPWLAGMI

The first experiment addresses T1, Neuronal acetylcholine receptor; alpha4/beta2 (Homo sapiens, UniProt P17787+P43681). Put plainly: Displacement of [3H]nicotine from Homo sapiens (human) alpha4beta2 nicotinic acetylcholine receptor expressed in Homo sapiens (human) SH-EP1 cells after 2.5 min by scintillation counting. It is filed as cell-based.
Conditions: not given; call rule not given here
(Displacement assays read how much labelled ligand stays bound in the presence of the test substance.)
By inhibition is commonly meant the share of the control response that was lost under treatment. Consider `CC(C)N(CCOc1cccnc1)C(C)C`, for which the inhibition result was “Dose-dependent effect”.

Still in this experiment, the particulars now being: read-out: Ki.
By Ki is commonly meant the dissociation constant of the complex between target and ligand, obtained from inhibition or displacement. `CN(C)CCOc1cccc([N+](=O)[O-])c1`: the Ki was determined as 3.39 µM.

As for `CN(C)CCOc1cccnc1`, the Ki came out at 0.3 µM.

Regarding `CN(C)CCOc1cncc(Cl)c1`, the Ki came out at 0.45 µM.

With `CC(C)N(CCOc1cccnc1)C(C)C`, the Ki came to 11.2 µM.

Take `CN(C)CCOc1cccc(O)c1`: the Ki turned out to be 0.36 µM.

The experiment is the same for the next values; noted with them: sh-ep1.
Consider `CCCN(CCC)CCOc1cccc([N+](=O)[O-])c1`, for which the Ki result is recorded as “Not Active”.

The target in another experiment is Neuronal acetylcholine receptor; alpha4/beta2 (Rattus norvegicus) (UniProt P09483+P12390). Put plainly: Displacement of [3H]cytisine from alpha4beta2 nicotinic acetylcholine receptor in Rattus norvegicus (rat) cerebral cortex at 10 uM after 75 min by scintillation counting. The format is tissue-based.
Conditions: not given
Take `CCCN(CCC)CCOc1cccc([N+](=O)[O-])c1`: the inhibition came out at 21%.

Compound `CC(C)N(CCOc1cccc(O)c1)C(C)C` registered an inhibition of 0%.

The compound `Oc1cccc(OCCN(c2ccccc2)c2ccccc2)c1` registered an inhibition of 0%.

Take `CC(C)N(CCOc1cccc([N+](=O)[O-])c1)C(C)C`: the inhibition was determined as 0%.

On to `CN(C)CCOc1cccc([N+](=O)[O-])c1`, for which the inhibition came out at 33%.

On to `CN(C)CCOc1cccnc1`, for which the inhibition is 95%.

`Cc1c(O)cccc1OCCN(c1ccccc1)c1ccccc1`: the inhibition was determined as 0%.

`CN(C)CCOc1cncc(Cl)c1` had an inhibition of 84%.

Regarding `CC(C)N(CCOc1cccnc1)C(C)C`, the inhibition was 64%.

`O=[N+]([O-])c1cccc(OCCN(c2ccccc2)c2ccccc2)c1` showed an inhibition of 0%.

Regarding `c1ccc(N(CCOc2cccnc2)c2ccccc2)cc1`, the inhibition came to 0%.

Another experiment concerns the target T1, Neuronal acetylcholine receptor; alpha4/beta2. Put plainly: Inhibition of alpha4beta2 nicotinic acetylcholine receptor (unknown origin). It is filed as protein-complex assay.
Conditions: not given
Compound `Oc1cccc(OC[C@@H]2CC3CCN2CC3)c1` showed a Ki of 0.004 µM.

For the compound `O=[N+]([O-])c1cccc(OC[C@@H]2CC3CCN2CC3)c1`, the inhibition constant (Ki) was 0.734 µM.
